What was measured:
PA-PB1 endonuclease [1] = experiment: Experimental PA-PB1 inhibitory activity of literature inhibitors (training and test set); type: biochemical, influenza virus; details: class of the experimental IC50
PA-PB1 endonuclease [2] = system: PA-PB1 endonuclease; set-up: method as in supplement 1-7; details: training and test set compounds collected from literature; ref supplement 1-7; read-out: IC50 value Experimental (PA-PB1 endonuclease inhibitors); cited from earlier work
in vitro [3] = type: cell-based, canine; details: dog
Protocol: (§1) The 3-(4,5-dimethylthiazol-2-yl)-2,5-diphenyltetrazolium bromide (MTT) method was performed to assess the cytotoxicity of target compounds in MDCK cells and HEK293T cells. Firstly, MDCK cells or HEK293T cells were seeded into the 96-well plate. Then, the media containing test compounds replaced the growth media after 48 h. Incubate MDCK cells or HEK293T cells with test compounds for 72 h at 37 °C in a humidified 5% CO2 incubator. Later, MTT solution (5 mg/mL in PBS) was added into each well and plates were incubated for 4 h at 37 °C. Then, add a solubilization solution to lyse cells. Finally, absorbance was read at 620 nm using an ELISA plate reader (Tecan Sunrise) after 3 h of further incubation at 37 °C. We set the values obtained from the wells treated with only DMSO as 100% of viable cells.

MDCK cells = experiment: in vitro; type: cell-based, canine; details: dog, 72 h
Protocol: as §1

[4] = system: influenza virus A/WSN/33 (H1N1); experiment: Plaque inhibition assay in MDCK cells; type: cell-based; details: MDCK, read-out: Plaque Inhibition Assay (A/WSN/33, H1N1) Inhibition Rate; for inhibition at 12.5 µM: concentration 12.5 µM; for inhibition at 100 µM: concentration 100 µM
in vitro [5] = type: cell-based; details: human
Protocol: as §1

HEK293T cells = experiment: in vitro; type: cell-based; details: human, 72 h
Protocol: as §1

[6] = system: influenza virus A/WSN/33 (H1N1); experiment: microbe, parasite or virus in culture; type: cell-based; details: MDCK, 72 h; for inhibition at 12.5 µM / inhibition at 25 µM / inhibition at 50 µM / inhibition at 100 µM: H1N1|WSN, read-out: Antiviral activity in CPE assay; for EC50: read-out: Cytopathic Effect Assay (A/WSN/33, H1N1) EC50

| SMILES | Activity scale Experimental (PA-PB1 endonuclease [1]) | IC50 (PA-PB1 endonuclease [2]) | CC50 at 72 h (in vitro [3]) | MDCK cells survival rate (MDCK cells; 12.5 µmol·L−1) | MDCK cells survival rate (MDCK cells; 25 µmol·L−1) | MDCK cells survival rate (MDCK cells; 50 µmol·L−1) | MDCK cells survival rate (MDCK cells; 100 µmol·L−1) | CC50 at 72 h (in vitro [5]) | HEK293T cells survival rate (HEK293T cells; 3.125 µmol·L−1) | HEK293T cells survival rate (HEK293T cells; 6.25 µmol·L−1) | HEK293T cells survival rate (HEK293T cells; 12.5 µmol·L−1) | HEK293T cells survival rate (HEK293T cells; 25 µmol·L−1) | HEK293T cells survival rate (HEK293T cells; 50 µmol·L−1) | HEK293T cells survival rate (HEK293T cells; 100 µmol·L−1) | inhibition at 12.5 µM [6] | inhibition at 25 µM [6] | inhibition at 50 µM [6] | inhibition at 100 µM [6] | EC50 [6] | melting point | further results |
| --- | --- | --- | --- | --- | --- | --- | --- | --- | --- | --- | --- | --- | --- | --- | --- | --- | --- | --- | --- | --- | --- |
| COc1ccccc1C(=O)Nc1sc2c(c1C(=O)Nc1ccc(Cl)cc1)CCCCC2 [Compound H34] | +++ (+++, IC50 10 to 100 μM (active)) | 78 µM |  |  |  |  |  |  |  |  |  |  |  |  |  |  |  |  |  |  |  |
| CCOC(=O)c1ccc(NC(=O)CSc2nc(-c3ccccc3)cc(-c3ccc(OCc4ccccc4)c(OCC)c3)c2C#N)cc1 [Compound H30] | +++ (+++, IC50 10 to 100 μM (active)) | 30 µM |  |  |  |  |  |  |  |  |  |  |  |  |  |  |  |  |  |  |  |
| Cc1cc(-c2ccccc2)nc2c(C(=O)Nc3sc4c(c3C(N)=O)CCC4)cnn12 [Compound H15] | +++ (+++, IC50 10 to 100 μM (active)) | 44.8 µM |  |  |  |  |  |  |  |  |  |  |  |  |  |  |  |  |  |  |  |
| Cc1cc(-c2ccccc2)nc2nc(NC(=O)c3ccccc3)nn12 [Compound H20] | +++ (+++, IC50 10 to 100 μM (active)) | 26 µM |  |  |  |  |  |  |  |  |  |  |  |  |  |  |  |  |  |  |  |
| COc1ccccc1C(=O)Nc1sc2c(c1C(=O)Nc1ccccn1)CCCCC2 [Compound H11] | +++ (+++, IC50 10 to 100 μM (active)) | 22 µM |  |  |  |  |  |  |  |  |  |  |  |  |  |  |  |  |  |  |  |
| CCCOc1ccc(C(=O)Nc2nc3n(n2)C(c2ccccc2)C=C(C)N3)cc1 (stereo not shown) [Compound H21] | +++ (+++, IC50 10 to 100 μM (active)) | 40 µM |  |  |  |  |  |  |  |  |  |  |  |  |  |  |  |  |  |  |  |
| Cc1cc(-c2ccccc2)n2nc(C(=O)Nc3sc4c(c3C(=O)Nc3ccccn3)CCCCC4)nc2n1 [Compound H06] | +++ (+++, IC50 10 to 100 μM (active)) | 23 µM |  |  |  |  |  |  |  |  |  |  |  |  |  |  |  |  |  |  |  |
| Cc1ccc(-c2cc(-c3ccccc3)nc(SC(C)C(=O)Nc3cccc(Cl)c3)c2C#N)cc1 (stereo not shown) [Compound H36] | ++ (++, IC50 100 to 150 μM (moderately active)) | 125 µM |  |  |  |  |  |  |  |  |  |  |  |  |  |  |  |  |  |  |  |
| CC1=CC(c2ccccc2)n2nc(NC(=O)c3ccccc3F)nc2N1 (stereo not shown) [Compound H25] | + (+, IC50 >150 μM (inactive)) | 185 µM |  |  |  |  |  |  |  |  |  |  |  |  |  |  |  |  |  |  |  |
| CCN(CC)CCCNC(=O)c1ccc(Nc2ccnc3cc(C(F)(F)F)ccc23)cc1 [Compound G06, N-[3-(Diethylamino)propyl]-4-{[7-(trifluoromethyl)quinolin-4-yl]amino}benzamide] |  |  | > 100 µM | 95.22±3.96% | 96.67±0.91% | 84.01±5.28% | 79.75±2.72% | > 100 µM | 107.15±2.76% | 90.35±0.85% | 96.59±4.26% | 85.50±2.49% | 85.25±2.63% | 76.47±9.94% | 16.7 ± 1.15% | 13.1 ± 0.69% | 12.8 ± 0.69% | 11.2 ± 0.23% | > 100 µM | 216.5 to 219.3 °C | inhibition at 12.5 µM [4]: < 10% |
| O=C(c1ccc(Nc2ccnc3cc(C(F)(F)F)ccc23)cc1)N1CCN(c2ccc(OC(F)(F)F)cc2)CC1 [Compound G15, {4-[4-(Trifluoromethoxy)phenyl]piperazin-1-yl}{4-{[7-(trifluoromethyl)quinolin-4-yl]amino}phenyl}methanone] |  |  | > 100 µM | 92.13±3.70% | 82.80±5.22% | 93.36±4.01% | 76.18±1.27% | > 100 µM | 105.64±1.62% | 104.46±0.45% | 93.38±3.30% | 103.00±3.15% | 89.01±2.08% | 81.59±1.91% | 36.9 ± 0.82% | 39.8 ± 4.98% | 35.3 ± 1.81% | 45.6 ± 5.12% | > 100 µM | 195.9 to 196.4 °C | inhibition at 50 µM ([4]; concentration 50 µM): 61% |
| COc1ccccc1OCCNC(=O)c1ccc(Nc2ccnc3ccc(Br)cc23)cc1 [Compound G24, N-[2-(2-Methoxyphenoxy)ethyl]-4-[(6-bromoquinolin-4-yl)amino]benzamide] |  |  | > 100 µM | 97.97±11.82% | 71.98±13.89% | 87.44±3.70% | 105.38±8.08% | > 100 µM | 113.31±4.70% | 96.70±5.40% | 91.88±3.61% | 91.06±10.23% | 69.53±3.05% | 72.95±4.52% | 21 ± 2.86% | 19.2 ± 0.69% | 19.2 ± 0.42% | 18.4 ± 1.27% | > 100 µM | 240.5 to 241.3 °C | inhibition at 100 µM [4]: < 10% |
| Cc1ccccc1N1CCN(C(=O)c2ccc(Nc3ccnc4cc(C(F)(F)F)ccc34)cc2)CC1 [Compound G13, [4-(O-tolyl)piperazin-1-yl]{4-{[7-(trifluoromethyl)quinolin-4-yl]amino}phenyl}methanone] |  |  | > 100 µM | 89.39±3.87% | 87.73±16.36% | 92.20±10.16% | 65.91±7.51% | > 100 µM | 99.14±6.42% | 96.29±4.65% | 89.92±2.14% | 88.23±4.29% | 80.60±2.01% | 81.89±2.67% | 27 ± 2.2% | 33.1 ± 4.47% | 36.9 ± 4.41% | 34.3 ± 7.15% | > 100 µM | 194.7 to 195.6 °C | inhibition at 100 µM [4]: < 10% |
| Cc1ccc(N2CCN(C(=O)c3ccc(Nc4ccnc5cc(C(F)(F)F)ccc45)cc3)CC2)cc1 [Compound G14, [4-(P-tolyl)piperazin-1-yl]{4-{[7-(trifluoromethyl)quinolin-4-yl]amino}phenyl}methanone] |  |  | > 100 µM | 82.40±6.45% | 91.16±1.34% | 72.26±17.99% | 56.76±2.08% | > 100 µM | 105.78±7.34% | 95.00±7.82% | 89.38±1.59% | 80.67±2.20% | 76.77±5.03% | 77.49±2.55% | 16.43 ± 0.12% | 20.7 ± 3.82% | 23.4 ± 2.31% | 27.9 ± 2.05% | > 100 µM | 192 to 193.8 °C | inhibition at 25 µM ([4]; concentration 25 µM): < 10% |
| O=C(NCc1ccccc1)c1ccc(Nc2ccnc3cc(C(F)(F)F)ccc23)cc1 [Compound G11, N-Benzyl-4-{[7-(trifluoromethyl)quinolin-4-yl]amino}benzamide] |  |  | > 100 µM | 148.07±0.17% | 123.28±5.69% | 127.54±0.33% | 137.86±9.32% | > 100 µM | 129.49±22.76% | 101.78±7.08% | 105.25±12.82% | 108.76±5.63% | 103.77±9.35% | 86.44±8.60% | 47.7 ± 9.63% | 52.4 ± 3.44% | 44.1 ± 1.38% | 47.3 ± 0.92% | 7.17 ± 1.53 µM | 263.4 to 265.8 °C | inhibition at 100 µM [4]: 50% |
| O=C(NC1CCCCC1)c1ccc(Nc2ccnc3cc(C(F)(F)F)ccc23)cc1 [Compound G09, N-Cyclohexyl-4-{[7-(trifluoromethyl)quinolin-4-yl]amino}benzamide] |  |  | > 100 µM | 156.36±6.13% | 124.74±4.87% | 130.46±12.65% | 133.61±3.89% | > 100 µM | 106.48±6.90% | 98.20±3.74% | 92.83±3.70% | 96.79±0.62% | 101.55±2.23% | 81.22±3.80% | 31.9 ± 0.69% | 22.9 ± 3.9% | 21.4 ± 0.92% | 23.2 ± 3.9% | > 100 µM | 236.5 to 237.3 °C | inhibition at 12.5 µM [4]: 46.9% |

From paper PMC9181126, “Design, Synthesis, Molecular Docking Analysis and Biological Evaluations of 4-[(Quinolin-4-yl)amino]benzamide Derivatives as Novel Anti-Influenza Virus Agents” (International Journal of Molecular Sciences, 2022)
